# US6451781B1, “Substituted acylguanidines, process for their preparation, their use as medicaments or diagnostics, and medicaments comprising them” (Aventis Pharma Deutschland GmbH, priority 1999, dated 2002)
# Key:
# [1] = target: T1, human Na+/H+ exchanger (subtype 3; NHE-3) (Homo sapiens, UniProt P48764); assay: Inhibition of the NHE antiport subtype 3: intracellular pH recovery after acid load (BCECF) in stably transfected LAP1 cells; format: cell-based; conditions: human NHE-3, pH recovery in % of maximum recovery, read-out: Residual activity at 30 μM
# T1 construct: expressed in transfected cells; host or cells: LAP1 cells (NHE-deficient), stably transfected with pMAMneo plasmid
# T1 sequence (P48764 26-834): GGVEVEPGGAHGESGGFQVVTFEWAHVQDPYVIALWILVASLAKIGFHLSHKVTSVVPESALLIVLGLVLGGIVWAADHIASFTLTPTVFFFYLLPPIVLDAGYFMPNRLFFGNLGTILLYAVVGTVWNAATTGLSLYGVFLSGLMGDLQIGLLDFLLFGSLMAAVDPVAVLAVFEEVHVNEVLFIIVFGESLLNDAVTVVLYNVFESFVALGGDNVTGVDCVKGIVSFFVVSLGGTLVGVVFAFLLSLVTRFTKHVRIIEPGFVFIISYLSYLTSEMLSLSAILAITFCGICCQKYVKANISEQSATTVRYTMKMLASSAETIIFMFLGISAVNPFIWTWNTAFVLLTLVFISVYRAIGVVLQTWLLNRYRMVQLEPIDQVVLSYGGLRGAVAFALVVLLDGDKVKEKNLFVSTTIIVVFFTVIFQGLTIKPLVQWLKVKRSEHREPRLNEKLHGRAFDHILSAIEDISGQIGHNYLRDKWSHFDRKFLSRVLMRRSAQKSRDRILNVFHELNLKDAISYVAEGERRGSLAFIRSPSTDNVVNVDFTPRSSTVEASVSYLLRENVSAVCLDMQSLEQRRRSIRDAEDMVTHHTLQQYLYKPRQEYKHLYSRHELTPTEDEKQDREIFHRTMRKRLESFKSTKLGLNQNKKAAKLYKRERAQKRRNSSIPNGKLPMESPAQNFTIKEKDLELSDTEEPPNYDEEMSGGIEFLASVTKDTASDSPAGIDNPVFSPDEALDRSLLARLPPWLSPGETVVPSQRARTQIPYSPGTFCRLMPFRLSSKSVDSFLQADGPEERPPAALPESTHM
# Method: The absorption of water from the gall bladder is inhibited by inhibition of the apical NHE antiport of the subtype 3 of the gall bladder epithelium, which results in a dilute bile fluid. This dilute bile fluid prevents gallstone formation and, if gallstones are already present, brings about their dissolution. The inhibition of the NHE antiport of the subtype 3 by the compounds of the formula I according to the invention was determined by means of the following test.
# Most of the molecular bilology techniques follow protocols from the works “Current Protocols in Molecular Biology (eds. Ausubel, F. M., Brent, R., Kingston, R. E., Moore, D. D., Seidman, J. G., Smith, J. A. and Struhl, K.; John Wiley & Sons)” and “Molecular Cloning: A Laboratory Manual (Sambrock, J., Fritsch, E. F. und Maniatis, T.; Cold Spring Harbor Laboratory Press (1989))”. […] In this test, the increase in the intracellular pH (pHi) after an acidification was determined which commenced with functional NHE even under bicarbonate-free conditions. For this, the pHi was determined using the pH-sensitive fluorescent dye BCECF (Calbiochem, the precursor BCECF-AM is employed). […] The BCECF fluorescence was determined in a “ratio fluorescence spectrometer” (Photon Technology International, South Brunswick, N.J., USA) at excitation wavelengths of 505 and 440 nm and an emission wavelength of 535 nm and converted into the pHi by means of calibration curves. […]
structure (smiles),measurement,setting,value
"C/C(=C\c1cc(F)c(Oc2ccc(CC(=O)NCCO[C@H]3CC[C@@]4(C)[C@@H](C3)C[C@@H](O)[C@@H]3[C@@H]4C[C@H](O)[C@]4(C)[C@@H]([C@H](C)CCC(=O)O)CC[C@@H]34)cc2)c(F)c1)C(=O)N=C(N)N (stereo in doubt) [Example 1, 4-{3-[2-(2-{4-[2,6-Difluoro-4-(3-guanidino-2-methyl-3-oxopropenyl)phenoxy]phenyl}acetylamino)ethoxy]-7,12-dihydroxy-10,13-dimethylhexadecahydro-cyclopenta[a]phenanthren-17-yl}pentanoic acid]",remaining activity at 30 µM,[1],17%
"C/C(=C\C(=O)N=C(N)N)c1cc(F)c(Oc2ccc(CC(=O)N[C@H]3CC[C@@]4(C)[C@@H](C3)C[C@@H](O)[C@@H]3[C@@H]4C[C@H](O)[C@]4(C)[C@@H]([C@H](C)CCC(=O)O)CC[C@@H]34)cc2)c(F)c1 (stereo in doubt) [Example 2, 4-[3-(2-{4-[2,6-Difluoro-4-(3-guanidino-1-methyl-3-oxopropenyl)phenoxy]phenyl}acetylamino)-7,12-dihydroxy-10,13-dimethylhexadecahydrocyclopenta[a]phenanthren-17-yl]pentanoic acid]",remaining activity at 30 µM,[1],10%
same,melting point,,190 °C (dec.)
"C[C@H](CCC(=O)O)[C@H]1CC[C@H]2[C@@H]3[C@H](O)C[C@@H]4C[C@@H](OCCNC(=O)c5cccc(-c6ccc(C(=O)N=C(N)N)cc6)c5)CC[C@]4(C)[C@H]3C[C@H](O)[C@]12C (stereo in doubt) [Example 3, 4-(3-{2-[(4′-Guanidinocarbonylbiphenyl-3-carbonyl)amino]ethoxy}-7,12-dihydroxy-10,13-dimethylhexadecahydrocyclopenta[a]phenanthren-17-yl)pentanoic acid]",remaining activity at 30 µM,[1],65%
